# Values of other authors as cited in patent US20100284970A1, “BEN[…] H1 RECEPTOR AND/OR NS4B PROTEIN” (AUSPEX PHARMACEUTICALS, INC., priority 2009, published 2010).
# Biological target: T1, hepatitis C virus NS4B protein (Hepatitis C virus genotype 1b, UniProt Q9WMX2)
# T1 construct: hepatitis C virus NS4B protein
# Settings: Einav et al., Nature Biotechnology, 2008, 26, 1019-1027
# T1 sequence (Q9WMX2 1712-1972): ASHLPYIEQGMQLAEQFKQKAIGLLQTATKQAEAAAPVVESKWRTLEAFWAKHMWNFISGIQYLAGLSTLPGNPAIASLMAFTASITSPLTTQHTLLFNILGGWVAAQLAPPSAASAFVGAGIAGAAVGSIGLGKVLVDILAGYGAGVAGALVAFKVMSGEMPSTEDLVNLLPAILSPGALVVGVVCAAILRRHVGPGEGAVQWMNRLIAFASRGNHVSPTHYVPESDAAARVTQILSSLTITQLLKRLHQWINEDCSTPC
structure (smiles),measurement,value
"Clc1ccc(Cn2c(CN3CCCC3)nc3ccccc32)cc1 [Clemizole, 1-[(4-chlorophenyl)methyl]-2-(1-pyrrolidinylmethyl)benzimidazole]",binding of hepatitis C virus RNA to hepatitis C virus NS4B protein,inhibit the binding of hepatitis C virus RNA to hepatitis C virus NS4B protein
